Results reported in PMC7163917 (European journal of medicinal chemistry, 2020).
Read-outs that look alike come from different tables or passages of the source.

Columns and labels:
[1] = system: phosphorylation of Pyk2 in PC12 cells; assay: NGF-induced phosphorylation of Pyk2 in PC12 cells; assay type: cell-based; details: 20 μM inhibitor, NGF 5 min
STEP F523A mutant = STEP F523A mutant (Homo sapiens, UniProt P54829, F547A)
STEP [2] = target: T1, STEP (Homo sapiens, UniProt P54829); assay: Ki measurement and Lineweaver-Burk kinetic analysis of STEP inhibition; assay type: biochemical; details: pNPP, pH 6.0, 30 °C
T1 sequence (P54829 300-555 limits assumed): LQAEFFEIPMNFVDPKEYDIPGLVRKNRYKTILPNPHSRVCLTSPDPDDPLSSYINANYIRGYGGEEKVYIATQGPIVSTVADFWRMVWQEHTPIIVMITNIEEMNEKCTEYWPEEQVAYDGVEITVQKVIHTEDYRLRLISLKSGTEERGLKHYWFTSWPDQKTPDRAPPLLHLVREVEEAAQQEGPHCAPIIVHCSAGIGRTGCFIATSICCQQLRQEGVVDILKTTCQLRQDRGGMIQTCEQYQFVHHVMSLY

[3] = system: phosphorylation of ERK1/2 in PC12 cells; assay: NGF-induced phosphorylation of ERK1/2 in PC12 cells; assay type: cell-based; details: 20 μM inhibitor, NGF 5 min
STEP [4] = target: T1, STEP; assay: STEP-catalyzed pNPP hydrolysis inhibition; assay type: biochemical; details: ST3 analogs, removal of carboxyl and hydroxyl group

Chain of STEP F523A mutant (P54829 282-563 F547A): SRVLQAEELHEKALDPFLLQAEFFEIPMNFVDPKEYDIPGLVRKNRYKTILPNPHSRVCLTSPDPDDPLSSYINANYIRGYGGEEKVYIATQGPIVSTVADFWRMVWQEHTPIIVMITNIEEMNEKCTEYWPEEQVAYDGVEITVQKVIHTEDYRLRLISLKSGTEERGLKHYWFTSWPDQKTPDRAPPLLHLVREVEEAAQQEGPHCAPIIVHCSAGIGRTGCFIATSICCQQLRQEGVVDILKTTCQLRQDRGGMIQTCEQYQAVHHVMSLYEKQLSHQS

| Structure (SMILES) | effect on NGF-induced phosphorylation of Pyk2 [1] | inhibitory activity in STEP F523A mutant compared with wild type (STEP F523A mutant) | inhibition pattern (Lineweaver-Burk plot) (STEP [2]) | effect on NGF-induced phosphorylation of ERK1/2 [3] | effect of structural change on STEP inhibitory activity (STEP [4]) | inhibitory activity in STEP F523A mutant compared with wild type (STEP F523A mutant; STEP F523A mutant) |
| --- | --- | --- | --- | --- | --- | --- |
| O=C(O)c1cccc2c1NC(c1cccc(Br)c1)C1CC(Sc3ccccc3[N+](=O)[O-])C(Cl)C21 (centres unmarked) [ST2] | significantly increased | decreased | competitive | significantly increased | – | – |
| O=C(O)c1cccc2c1NC(c1ccc(F)cc1)C1CC(Sc3ccccc3[N+](=O)[O-])C(Cl)C21 (centres unmarked) [ST2–5] | significantly increased | decreased | competitive | significantly increased | – | – |
| O=C(O)c1cc(-c2ccc(/C=C3\Sc4ccccc4C3=O)o2)ccc1O [ST3] | significantly increased | – | competitive | significantly increased | – | – |
| Cc1cc(-c2ccc(/C=C3\Sc4ccccc4C3=O)o2)ccc1Cl [ST3–1] | – | – | – | – | significantly decreased | – |
| COC(=O)c1cccc(-c2ccc(/C=C3\Sc4ccccc4C3=O)o2)c1 [ST3–3] | – | – | – | – | significantly decreased | – |
| Cc1cc(C(=O)O)ccc1-c1ccc(C=C2C(=O)c3ccccc3C2=O)o1 [ST3–5] | significantly increased | – | competitive | significantly increased | – | decreased |
